Where a name gives a salt, the structure may show the parent alone.
Key:
[1] = molecular target: T1, Recombinant human VAP-1 SSAO (Homo sapiens, UniProt Q16853); experiment: In vitro inhibition of VAP-1 SSAO activity (coupled colourimetric method); format: biochemical; settings: for Selectivity for VAP-1 SSAO over MAO: ratio of total rat MAO IC50 to human VAP-1 SSAO IC50; for IC50: recombinant human VAP-1 SSAO in CHO cell lysate, 1 mM benzylamine, pH 7.6, 37° C., read-out: VAP-1 SSAO inhibitory activity IC50
T1 construct: expressed in transfected cells; host or cells: Chinese Hamster Ovary (CHO) cells; NP40 lysate supernatant used directly
T1 sequence (Q16853 1-763): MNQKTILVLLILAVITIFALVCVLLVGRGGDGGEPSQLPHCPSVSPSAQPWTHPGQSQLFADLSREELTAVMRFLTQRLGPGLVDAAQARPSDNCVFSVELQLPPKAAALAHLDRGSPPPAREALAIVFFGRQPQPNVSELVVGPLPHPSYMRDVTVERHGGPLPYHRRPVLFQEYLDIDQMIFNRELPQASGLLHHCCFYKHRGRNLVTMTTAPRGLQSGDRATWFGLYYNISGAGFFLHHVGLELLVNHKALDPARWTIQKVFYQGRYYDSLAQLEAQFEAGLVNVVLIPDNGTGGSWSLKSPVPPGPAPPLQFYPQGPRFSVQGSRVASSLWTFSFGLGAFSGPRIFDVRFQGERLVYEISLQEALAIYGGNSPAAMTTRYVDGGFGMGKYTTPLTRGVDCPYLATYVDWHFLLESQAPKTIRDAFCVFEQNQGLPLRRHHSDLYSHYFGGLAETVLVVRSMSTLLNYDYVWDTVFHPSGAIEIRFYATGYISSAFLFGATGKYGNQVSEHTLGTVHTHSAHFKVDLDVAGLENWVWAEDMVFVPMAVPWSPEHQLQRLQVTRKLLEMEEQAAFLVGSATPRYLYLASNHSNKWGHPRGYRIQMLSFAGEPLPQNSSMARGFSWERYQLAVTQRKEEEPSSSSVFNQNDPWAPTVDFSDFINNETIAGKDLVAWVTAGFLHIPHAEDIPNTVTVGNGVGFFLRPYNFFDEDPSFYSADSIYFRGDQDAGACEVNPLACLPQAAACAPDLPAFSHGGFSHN
Procedure: VAP-1 SSAO activity was measured using the coupled colourimetric method essentially as described for monoamine oxidase and related enzymes (Holt, A., et al., Anal. Biochem. 244:384-392 (1997)). Recombinant human VAP-1 SSAO expressed in Chinese Hamster Ovary (CHO) cells was used as a source of VAP-1 SSAO for activity measurements. Native CHO cells have negligible SSAO activity. These cells and their culture have previously been described (Smith, D. J., et al., J. Exp. Med. 188:17-27 (1998)). A cell lysate was prepared by suspending approximately 3.6×10^8 cells in 25 ml lysis buffer (150 mM NaCl, 10 mM Tris-Base pH 7.2, 1.5 mM MgCl2, 1% NP40) and incubating at 4° C. overnight on a rotating table. The lysate was clarified by centrifugation at 18000 g for 5 min at room temperature and the supernatant used directly in the assay. The VAP1 SSAO assay was performed in 96 well microtitre plates as follows. To each well was added a predetermined amount of inhibitor if required. The amount of inhibitor varied in each assay but was generally at a final concentration of between 1 nM and 50 μM. Controls lacked inhibitor. The inhibitor was in total volume of […] in water. The following reagents were then added. 0.2M potassium phosphate buffer pH 7.6 to a total reaction volume of 200 μl, 45 μl of freshly made chromogenic solution containing 1 mM 2,4-dichlorophenol, 500 μM 4-aminoantipyrine and 4 U/ml horseradish peroxidase and an amount of CHO cell lysate containing VAP-1 SSAO that caused a change of 0.6 A490 per h. This was within the linear response range of the assay. The plates were incubated for 30 min at 37° C. and the background absorbance measured at 490 nm using a Wallac Victor II multilabel counter. To initiate the enzyme reaction 20 μl 10 mM benzylamine (final concentration=1 mM) was added and the plate incubated for 1 h at 37° C. The increase in absorbance, reflecting VAP-1 SSAO activity, was measured at490 nm. Inhibition was presented as percent inhibition compared to control after correcting for background absorbance and IC50 values calculated using GraphPad Prism.

| SMILES | melting point [°C] | Selectivity for VAP-1 SSAO over MAO [1] | IC50 [1] [nM] | Selectivity for VAP-1 SSAO over MAO ([1]; fumarate) | Selectivity for VAP-1 SSAO over MAO ([1]; succinate) |
| --- | --- | --- | --- | --- | --- |
| CN(N)[C@H]1Cc2ccccc2[C@@H]1O (as salt: maleate) [Compound 1, (1S,2S)-2-(1-methylhydrazino)-1-indanol hydrogenmaleate] | 104 to 106 | – | – | – | – |
| CN(N)[C@@H]1Cc2ccccc2[C@H]1O (as salt: maleate) [Compound 6, (1R,2R)-2-(1-methylhydrazino)-1-indanol hydrogenmaleate] | 104 to 106 | – | – | – | – |
| CO[C@H]1c2ccccc2C[C@@H]1N(C)N (as salt: maleate) [Compound 19, (1S,2S)-2-(1-methylhydrazino)-1-methoxyindane Hydrogenmaleate] | 113 to 115 | – | – | – | – |
| CCN(N)[C@@H]1Cc2ccccc2[C@H]1O (racemic) [Compound 2, (1R*,2R*)-2-(1-Ethylhydrazino)-1-indanol hydrogenmaleate] | – | 4 | 5300 | – | – |
| CN(N)[C@@H]1Cc2ccccc2[C@H]1O (relative stereo) [Compound 4, (1R,*2R*)-2-(1-Methylhydrazino)-1-indanol hydrogenmaleate] | – | 32 | 660 | – | – |
| CN(N)[C@H]1Cc2ccccc2[C@@H]1O [Compound 1, (1S,2S)-2-(1-methylhydrazino)-1-indanol hydrogenmaleate] | – | 31 | 700 | – | – |
| CN(N)[C@@H]1Cc2ccccc2[C@H]1O [Compound 6, (1R,2R)-2-(1-methylhydrazino)-1-indanol hydrogenmaleate] | – | 29 | 650 | – | – |
| CN(N)[C@H]1Cc2ccccc2[C@@H]1O [Compound 7, (1S,2S)-2-(1-methylhydrazino)-1-indanol fumarate] | – | – | 470 | 28 | – |
| CN(N)[C@@H]1Cc2ccccc2[C@H]1O [Compound 8, (1R,2R)-2-(1-methylhydrazino)-1-indanol fumarate] | – | – | 560 | 21 | – |
| CN(N)[C@H]1Cc2ccccc2[C@@H]1O [Compound 9, (1S,2S)-2-(1-methylhydrazino)-1-indanol succinate] | – | – | 620 | – | 26 |
| CN(N)[C@@H]1Cc2ccccc2[C@H]1O [Compound 10, (1R,2R)-2-(1-methylhydrazino)-1-indanol succinate] | – | – | 660 | – | 23 |
| CN(N)[C@H]1Cc2ccccc2[C@@H]1O [Compound 11, (1S,2S)-2-(1-methylhydrazino)-1-indanol (S,S)-tartrate] | – | 31 | 710 | – | – |
| CN(N)[C@@H]1Cc2ccccc2[C@H]1O [Compound 12, (1R,2R)-2-(1-methylhydrazino)-1-indanol (S,S)-tartrate] | – | 30 | 660 | – | – |
| CN(N)[C@H]1Cc2ccccc2[C@@H]1O [Compound 13, (1S,2S)2-(1-methylhydrazino)-1-indanol (R,R)-tartrate] | – | 29 | 660 | – | – |
| CN(N)[C@@H]1Cc2ccccc2[C@H]1O [Compound 14, (1R,2R)-2-(1-methylhydrazino)-1-indanol (R,R)-tartrate] | – | 28 | 710 | – | – |
| CO[C@H]1c2ccccc2C[C@@H]1N(C)N [Compound 19, (1S,2S)-2-(1-methylhydrazino)-1-methoxyindane Hydrogenmaleate] | – | 3 | 4320 | – | – |
